Structures can show the parent of a compound that is named as a salt.
Experiments:
[1] = Dynamic vapour sorption (DVS), water absorption; assay type: physicochemical; details: between 20% and 70% RH
Procedure: Approximately 10-20 mg of sample was placed into a vapour sorption balance pan and loaded into a DVS-1 dynamic vapour sorption balance by Surface Measurement Systems. The sample was subjected to a ramping profile from 20-90% relative humidity (RH) at 10% increments, maintaining the sample at each step until a stable weight had been achieved (99.5% step completion). After completion of the sorption cycle, the sample was dried using the same procedure, but all the way down to 0% RH and finally taken back to the starting point of 20% RH. The weight change during the sorption/desorption cycles were plotted, allowing for the hygroscopic nature of the sample to be determined.

[2] = Aqueous solubility measurement; assay type: physicochemical; details: thermodynamic from solid; deionized water, shaking ca. 24 h, ambient temperature (ca. 22° C.)
Procedure: Each salt was individually slurried in deionized water and subjected to shaking for ca. 24 h at ambient temperature (ca. 22° C.). The resulting saturated solutions were filtered and analyzed by HPLC analysis. XRPD analysis was carried out on any solid retained after the solubility experiment.

[3] = Karl Fischer coulometric titration (water content); assay type: physicochemical
Procedure: Ca. 10-20 mg of solid material was accurately weighed into a container and the weight noted. The solid was then manually introduced into the titration cell of a Mettler Toledo C30 Compact Titrator. The titration was initiated once the sample had fully dissolved in the cell. The vial was back-weighed after the addition of the solid and the weight of the added solid entered into the instrument. The water content was calculated automatically by the instrument as a percentage and the data printed.

[4] = humidity (75%) and high temperature (40° C.); reported in WO2010/083414; cited from earlier work
[5] = reported in WO2010/083414; cited from earlier work

In the case of `COc1cc2nccc(Oc3ccc(NC(=O)C4(C(=O)Nc5ccc(F)cc5)CC4)cc3)c2cc1OC.O=P(O)(O)O` [Cabozantinib phosphate Form A, N-{4-[(6,7-dimethoxy-4-quinolinyl)oxy]phenyl}-N′-(4-fluorophenyl)-1,1-cyclopropanedicarboxamide phosphate], the Water absorption ([1]; DVS) is reported as 1%, the solubility at 24 h [2] is reported as 90 µg/mL and the “KF analysis water content” value [3] is reported as 0.5 weight-%.
For `COc1cc2nccc(Oc3ccc(NC(=O)C4(C(=O)Nc5ccc(F)cc5)CC4)cc3)c2cc1OC` [cabozantinib hydrochloride salt], the “Physical stability (hydrate formation / phase change)” value [4] is given as “Possible hydrate formation and a phase change”.
With `COc1cc2nccc(Oc3ccc(NC(=O)C4(C(=O)Nc5ccc(F)cc5)CC4)cc3)c2cc1OC.Cl` [Cabozantinib hydrochloride Form A-1, N-{4-[(6,7-dimethoxy-4-quinolinyl)oxy]phenyl}-N′-(4-fluorophenyl)-1,1-cyclopropanedicarboxamide hydrochloride] the “Water absorption (DVS)” value ([1]; DVS) was 0.07 weight-%, the “Hygroscopicity (DVS)” value [1] was “non hygroscopic” and the solubility at 24 h [2] was 210 µg/mL.
For `COc1cc2nccc(Oc3ccc(NC(=O)C4(C(=O)Nc5ccc(F)cc5)CC4)cc3)c2cc1OC` [(L)-malate salt], the Hygroscopicity [5] is given as “non-hygroscopic”.
